This passage reports solubility in water results from US8889903B2, “Synthesis of rare earth metal extractant” (Shin-Etsu Chemical Co., Ltd., priority 2010, dated 2014).

The nature of this series: Solubility in water. Format: physicochemical. On the procedure:
If B/A<1.0, which means an excess of diglycolic anhydride for reaction, the desired dialkyl diglycol amic acid is obtained as the reaction product, in which unreacted diglycolic acid may remain. When solvent extraction is carried out using dialkyl diglycol amic acid having diglycolic acid left therein, no satisfactory separation ability is available and the solution becomes white turbid because clad is formed between organic phase and aqueous phase. […] This is because the diglycolic acid remaining along with the metal extractant, dialkyl diglycol amic acid forms a complex with a rare earth metal ion, inhibiting satisfactory extraction and separation. That is, diglycolic acid becomes an inhibitory factor to extraction. To obtain diglycolic acid-free dialkyl diglycol amic acid as the rare earth metal extractant capable of normal extraction and separation, the step of removing unreacted diglycolic acid is necessary as in the prior art method. Specifically, the water-soluble diglycolic acid must be removed by removing the synthesis medium and washing the reaction product with water. […] In order to use the dialkyl diglycol amic acid in crystallized form as the rare earth metal extractant, filtration and drying steps are needed. The process becomes less efficient because extra steps are necessary as compared with the range of 1.0≦B/A≦1.2.

Each structure is given as a SMILES string. In brackets after ≈: the same amount, converted by molar mass.

On to `CCCCCCCCN(CCCCCCCC)C(=O)COCC(=O)O` [DODGAA, N,N-dioctyl-3-oxapentane-1,5-amic acid], for which the solubility in water came out at 6.2 µM (≈ 2.22 µg/mL).
